# Earlier results in patent US6951873B1, “Methods for treating age-related behavioral disorders in companion animals” (priority 1999, dated 2005).
# Test system: aged-impaired dogs
# Details: spatial memory model sensitive to age-dependent cognitive impairment
smiles,measurement,value
C#CCN(C)[C@H](C)Cc1ccccc1.Cl [selegiline chloride],Performance of aged-impaired dogs on this test,improved
